# Measurements reported in patent publication US20240158447A1, “PEPTIDES FOR USE IN THE TREATMENT OR PREVENTION OF MYOCARDIAL DAMAGE” (THE UNIVERSITY OF WESTERN AUSTRALIA, priority 2020, published 2024).
# “Also recorded” adds a separate entry of the source.
# Key:
# Guinea pig hearts = assay: Myocardial ischemia-reperfusion injury, Langendorff hearts ex vivo (CK, LDH, GSH:GSSG); conditions: for Creatine Kinase (CK) activity in perfusate: FIG. 6(a); for Lactate Dehydrogenase (LDH) activity in perfusate: FIG. 6(b); for GSH:GSSG ratio in whole heart tissue: FIG. 6(c)
# Procedure: Adult male guinea pigs were anesthetized with pentobarbitone sodium (240 mg/kg) via intraperitoneal injection prior to excision of the heart. Guinea pig hearts were cannulated onto a Langendorff apparatus via the aorta and perfused retrogradely with Ca^2+ containing KHB comprising (in mM): 120 NaCl, 25 NaHCO3, 4.8 KCl, 2.2 MgSO4, 1.2 NaH2PO4, 11 glucose and 1.5 CaCl2 (pH=7.35 with O2/CO2 at 37° C.) at 37° C. for 30 min at a rate of 7 mL/min, followed by 30 min no-flow ischemia, then 30 min reperfusion as previously described.
# Perfusates were collected 20 and 25 min pre-ischemia and 20 and 30 min following reperfusion. A single dose of 0.5-10 μM AID(S)-TAT, AID-TAT, peptide 6 or peptide 7 was added to Ca^2+-containing KHB solution just prior to reperfusion. Creatine Kinase (CK) and Lactate Dehydrogenase (LDH) activity was measured in perfusates collected pre- and post-ischemia, and post-ischemia values normalized to pre-ischemia values.
# For each sample, 10 μL of perfusate was added to 100 μL CK enzyme reagent (CK NAC-activated diagnostic kit, Randox Laboratories) and the rate of increase in absorbance recorded over 15 min at 30° C. using a spectrophotometer (PowerWave XS, BioTek, 340 nm).
# To determine LDH activity, 150 μL of each sample was mixed with 50 μL of LDH reagent (50 mM imidazole buffer, 375 μM NADH, pyruvate and 0.05% BSA, pH=7) and the rate of decrease in absorbance recorded over 15 min at 25° C. using a spectrophotometer (PowerWave XS, BioTek, 340 nm).
# GSSG was calculated by subtracting GSH from total glutathione.
# cTnI.2 wt myocytes [1] = assay: Mitochondrial membrane potential (JC-1) response to BayK(−), wt myocytes (Example 10); format: cell-based, mouse; conditions: 0.5 μM peptide, calcium-free, FIG. 11A
# Procedure: (§1) In this experiment wt myocytes were pre-exposed to 0.1, 0.5 or 1 μM for 20 min and assessed changes in flavoprotein oxidation and ψm.
# Measurement of mitochondrial membrane potential: The fluorescent indicator 5,5′,6,6′-tetrachloro1,1′,3,3′-tetraethylbenzimidazolylcarbocyanine iodide (JC-1) was used to measure mitochondrial membrane potential (ψm) as previously described (Viola H M, Arthur P G, Hool L C. Transient exposure to hydrogen peroxide causes an increase in mitochondria-derived superoxide as a result of sustained alteration in L-type Ca2+ channel function in the absence of apoptosis in ventricular myocytes. Circ Res. 2007; 100(7):1036-44). […] Images were acquired at 2 min intervals with 50 ms exposure. Metamorph 6.3 (Version 7.10.3) was used to quantify the signal by manually tracing myocytes. An equivalent region not containing cells was used as background and was subtracted. The 580 nm/535 nm ratiometric fluorescence values recorded over 6 min before and 4 min after addition of drugs were averaged and alterations in fluorescent ratios reported as the percentage increase from the basal average. […] In addition, individual 580 and 535 signals were assessed in each experiment to determine whether the fluorescent indicator was accurately measuring ψm. […]
# Based on results obtained from in vitro assessment of flavoprotein oxidation, the effect of 0.5 μM AID-TAT variants on changes in mitochondrial membrane potential (ψm) was further explored. Experiments were performed using JC-1 fluorescence under calcium-free conditions as previously described (Viola H, Johnstone V, Cserne Szappanos H, Richman T, Tsoutsman T, Filipovska A, et al. The L-type Ca(2+) channel facilitates abnormal metabolic activity in the cTnI-G2035 mouse model of hypertrophic cardiomyopathy. J Physiol. 2016; 594(14):4051-70; Viola H M, Shah A A, Johnstone V P A, Cserne Szappanos H, Hodson M P, Hool L C. Characterization and validation of a preventative therapy for hypertrophic cardiomyopathy in a murine model of the disease. Proc Natl Acad Sci U S A. 2020; 117(37):23113-24). […]
# cTnI.2 wt myocytes [2] = assay: Flavoprotein oxidation response to BayK(−), wt myocytes (Example 10); format: cell-based, mouse; conditions: 10 μM BayK(−)
# Procedure: as §1
# (§2) Measurement of mitochondrial flavoprotein oxidation: Flavoprotein autofluorescence was used to measure flavoprotein oxidation based on previously described methods (Yaniv Y, Juhaszova M, Lyashkov A E, Spurgeon H A, Sollott S J, Lakatta E G. Ca2+-regulated-cAMP/PKA signaling in cardiac pacemaker cells links ATP supply to demand. J Mol Cell Cardiol. 2011; 51(5):740-8). […] Fluorescent images were acquired at 1 min intervals with 200 ms exposure. Metamorph 6.3 (Version 7.10.3) was used to quantify the signal by manually tracing myocytes. An equivalent region not containing cells was used as background and was subtracted. Fluorescence values recorded over 5 min before and 5 min after addition of drugs were averaged and alterations in fluorescent ratios reported as the percentage increase from the basal average. FCCP (50 μM) and NaCN (40 mM) was added at the end of each experiment to achieve a respective maximal and minimal fluorescence value indicative of maximal and minimal flavoprotein oxidation.
# (§3) The ICA-L agonist BayK(−) was used to activate the channel and assess mitochondrial function. […] FIG. 10 presents the mean+/−SEM of flavoprotein fluorescence from cTnI.2 wt and cTnI-G2035 mutant myocytes before and after exposure to 10 μM BayK(−) in the presence of 1 μM AID(S)-TAT, and increasing concentrations of variant peptides as indicated. N=no. of animals, n=no. of cardiomyocytes. P values shown compared with AID(S)-TAT as determined by the Kruskal-Wallis test.
# [3] = tested on: cTnI-G203S mutant myocytes; assay: Mitochondrial membrane potential (JC-1) response to BayK(−), cTnI-G203S myocytes (Example 10); format: cell-based, mouse
# Procedure: as §1
# Measurement of mitochondrial membrane potential: The fluorescent indicator 5,5′,6,6′-tetrachloro1,1′,3,3′-tetraethylbenzimidazolylcarbocyanine iodide (JC-1) was used to measure mitochondrial membrane potential (ψm) as previously described (Viola H M, Arthur P G, Hool L C. Transient exposure to hydrogen peroxide causes an increase in mitochondria-derived superoxide as a result of sustained alteration in L-type Ca2+ channel function in the absence of apoptosis in ventricular myocytes. Circ Res. 2007; 100(7):1036-44). […] Images were acquired at 2 min intervals with 50 ms exposure. Metamorph 6.3 (Version 7.10.3) was used to quantify the signal by manually tracing myocytes. An equivalent region not containing cells was used as background and was subtracted. The 580 nm/535 nm ratiometric fluorescence values recorded over 6 min before and 4 min after addition of drugs were averaged and alterations in fluorescent ratios reported as the percentage increase from the basal average. To confirm that the signal was indicative of ψm, 40 mM NaCN was added at the end of each experiment to collapse ψm. In addition, individual 580 and 535 signals were assessed in each experiment to determine whether the fluorescent indicator was accurately measuring ψm. For calcium-free experiments, cells were exposed to calcium-free HBS (supplemented with 3 mM EGTA and 200 nM JC-1) for at least 3 h prior to measuring changes in ψm.
# Based on results obtained from in vitro assessment of flavoprotein oxidation, the effect of 0.5 μM AID-TAT variants on changes in mitochondrial membrane potential (ψm) was further explored. Experiments were performed using JC-1 fluorescence under calcium-free conditions as previously described (Viola H, Johnstone V, Cserne Szappanos H, Richman T, Tsoutsman T, Filipovska A, et al. The L-type Ca(2+) channel facilitates abnormal metabolic activity in the cTnI-G2035 mouse model of hypertrophic cardiomyopathy. J Physiol. 2016; 594(14):4051-70; Viola H M, Shah A A, Johnstone V P A, Cserne Szappanos H, Hodson M P, Hool L C. Characterization and validation of a preventative therapy for hypertrophic cardiomyopathy in a murine model of the disease. Proc Natl Acad Sci U S A. 2020; 117(37):23113-24). […] FIG. 11 presents the mean+/−SE of JC-1 fluorescence from cTnI.2 wt and cTnI-G203S mutant myocytes before and after exposure to 10 μM BayK(−) in the presence of 1 μM AID(S)-TAT, and 0.5 μM of variant peptides as indicated. N=no. of animals, n=no. of cardiomyocytes. P values shown compared with AID(S)-TAT as determined by the Kruskal-Wallis test.
# [4] = tested on: cTnI-G203S mutant myocytes; assay: Flavoprotein oxidation response to BayK(−), cTnI-G203S myocytes (Example 10); format: cell-based, mouse; conditions: 0.5 μM peptide, 10 μM BayK(−), FIG. 10D
# Procedure: as §1
# as §2, with “An equivalent region not containing cells was used as background and was subtracted.” left out
# as §3, with “N=no. of animals, n=no. of cardiomyocytes. P values shown compared with AID(S)-TAT as determined by the Kruskal-Wallis test.” left out
# [5] = 0.5 μM peptide added just prior to reperfusion
# [6] = 1 μM peptide added just prior to reperfusion
substance,measurement,setting,value
AIDP7-TAT: QQQEEDLKGYLDWITQAE with TAT sequence,Creatine Kinase (CK) activity in perfusate,Guinea pig hearts; [5],reduced compared to the AID(S)-TAT peptide; also recorded: reduced in both P7-TAT (1 μM) and P7-TAT (0.5 μM) compared to the P6-TAT peptide; also recorded: at least as effective as AID-TAT (1 μM)
same,Lactate Dehydrogenase (LDH) activity in perfusate,Guinea pig hearts; [5],reduced compared to the AID(S)-TAT peptide; also recorded: reduced LDH at least as well as AID-TAT (1 μM)
same,GSH:GSSG ratio in whole heart tissue,Guinea pig hearts; 0.5 μM peptide,"statistically significant increase in the GSH:GSSG ratio, comparable to the AID-TAT samples at 10 μM"
same,Creatine Kinase (CK) activity in perfusate,Guinea pig hearts; [6],reduced compared to the AID(S)-TAT peptide; also recorded: reduced in both P7-TAT (1 μM) and P7-TAT (0.5 μM) compared to the P6-TAT peptide
same,Lactate Dehydrogenase (LDH) activity in perfusate,Guinea pig hearts; [6],reduced compared to the AID(S)-TAT peptide
same,GSH:GSSG ratio in whole heart tissue,Guinea pig hearts; 1 μM peptide,"statistically significant increase in the GSH:GSSG ratio, comparable to the AID-TAT samples at 10 μM"
same,"oxidative stress (CK activity, LDH activity and GSH:GSSG ratio taken together)",Guinea pig hearts; same concentration or lower dosages of P7-TAT versus AID-TAT,more effective than AID-TAT at reducing oxidative stress
same,BayK(−) induced increase in ψm (JC-1 fluorescence),cTnI.2 wt myocytes [1],significantly attenuated the response
same,BayK(−) induced increase in flavoprotein oxidation,"cTnI.2 wt myocytes [2]; 0.5 μM peptide 20 min, FIG. 10B",effective
same,BayK(−) induced increase in flavoprotein oxidation,"cTnI.2 wt myocytes [2]; 1 μM peptide 20 min, FIG. 10A",just as effective at attenuating the response in wt myocytes as the original AID-TAT
same,BayK(−) induced increase in ψm (JC-1 fluorescence),"[3]; 0.5 μM peptide, calcium-free, FIG. 11B",significantly attenuated the response
same,"normalising mitochondrial metabolic activity (in vitro, overall)",[3]; flavoprotein oxidation and JC-1 data together,most effective in normalising mitochondrial metabolic activity
same,BayK(−) induced increase in flavoprotein oxidation,[4],significantly attenuated increases in flavoprotein oxidation resulting from BayK(−) exposure
